Reference: the supplement of paper PMC10307832

Experiments:
Experiment in all cases: relative viability (nuclei count vs DMSO), 5 days (fraction); higher = more cells survive
[1] = compound: CCn1c(-c2nonc2N)nc2c(C#CC(C)(C)O)ncc(OC[C@H]3CCCNC3)c21 + Cc1cc(Nc2cc(N3CCN(C)CC3)nc(Sc3ccc(NC(=O)C4CC4)cc3)n2)n[nH]1 [Tozasertib] (partner 0.1 µM)
Summary of the method: (§1)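 Relative viability was taken as the ratio of nuclei in treated wells to nuclei in vehicle wells. Lung cancer cell lines in 1536-well plates received compounds by pin tool one day after seeding, either one drug alone or a fixed anchor-drug dose plus five library-drug doses (not always all listed) in √10 steps. Nuclei were counted on 4× images after 5 days of treatment, and values are medians of duplicate plates.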

BAM7 + Dasatinib = compound: CCOC1=CC=CC=C1N=NC2=C(NN(C2=O)C3=NC(=CS3)C4=CC=CC=C4)C [BAM7] + Cc1nc(Nc2ncc(C(=O)Nc3c(C)cccc3Cl)s2)cc(N2CCN(CCO)CC2)n1 [Dasatinib] (partner 0.075 µM)
Summary of the method: as §1

[2] = compound: CCn1c(-c2nonc2N)nc2c(C#CC(C)(C)O)ncc(OC[C@H]3CCCNC3)c21 + Nc1nc2[nH]cc(CCc3ccc(C(=O)N[C@@H](CCC(=O)O)C(=O)O)cc3)c2c(=O)[nH]1 [Pemetrexed] (partner 0.2 µM)
Summary of the method: as §1

BAM7 + Navitoclax = compound: CCOC1=CC=CC=C1N=NC2=C(NN(C2=O)C3=NC(=CS3)C4=CC=CC=C4)C [BAM7] + CC1(C)CCC(c2ccc(Cl)cc2)=C(CN2CCN(c3ccc(C(=O)NS(=O)(=O)c4ccc(N[C@H](CCN5CCOCC5)CSc5ccccc5)c(S(=O)(=O)C(F)(F)F)c4)cc3)CC2)C1 [Navitoclax] (partner 0.5 µM)
Summary of the method: as §1

Cell Line | relative viability ([1]; first compound 0.01 µM) | relative viability ([1]; first compound 0.03162 µM) | relative viability ([1]; first compound 0.1 µM) | relative viability ([1]; first compound 0.3162 µM) | relative viability ([1]; first compound 1 µM) | relative viability (BAM7 + Dasatinib; first compound 0.5 µM) | relative viability (BAM7 + Dasatinib; first compound 5 µM) | relative viability (BAM7 + Dasatinib; first compound 15.81 µM) | relative viability (BAM7 + Dasatinib; first compound 50 µM) | relative viability ([2]; first compound 0.01 µM) | relative viability ([2]; first compound 0.03162 µM) | relative viability ([2]; first compound 0.1 µM) | relative viability ([2]; first compound 0.3162 µM) | relative viability ([2]; first compound 1 µM) | relative viability (BAM7 + Navitoclax; first compound 0.5 µM) | relative viability (BAM7 + Navitoclax; first compound 5 µM) | relative viability (BAM7 + Navitoclax; first compound 15.81 µM) | relative viability (BAM7 + Navitoclax; first compound 50 µM)
EMC-BAC-2 | 0.297 | 0.287 | 0.268 | 0.255 | 0.262 | 0.301 | 0.366 | 0.331 | 0.394 | 0.391 | 0.427 | 0.443 | 0.43 | 0.427 | 1.2 | 1.23 | 1.08 | 1.17
EPLC-272H | 0.337 | 0.512 | 0.261 | 0.186 | 0.274 | 0.369 |  | 0.346 | 0.434 | 0.299 | 0.301 | 0.346 | 0.297 | 0.282 | 1.32 | 1.21 | 1.15 | 1.17
H3255 | 0.549 | 0.646 | 0.63 | 0.547 | 0.615 | 0.397 | 0.34 | 0.483 | 0.788 | 0.543 | 0.571 | 0.618 | 0.536 | 0.548 | 0.473 | 0.51 | 0.525 | 0.577
HARA | 0.13 | 0.106 | 0.143 | 0.0993 | 0.109 | 0.293 | 0.403 | 0.291 | 0.328 | 0.24 | 0.19 | 0.223 | 0.247 | 0.249 | 1.19 | 1.19 | 1.08 | 1.16
HCC-15 | 0.393 | 0.439 | 0.338 | 0.427 | 0.384 | 0.594 | 0.574 | 0.617 | 0.565 | 0.218 | 0.225 | 0.218 | 0.211 | 0.209 | 0.751 | 0.768 | 0.683 | 0.707
HCC-44 |  |  | 1.08 | 0.79 | 1.08 |  |  |  |  | 0.633 | 0.649 | 0.661 | 0.577 | 0.636 | 1.02 | 1.02 | 0.959 | 1.01
HCC-78 | 0.391 | 0.414 | 0.36 | 0.41 | 0.405 | 0.502 | 0.276 | 0.424 | 0.306 | 0.864 | 0.92 | 0.952 | 0.871 | 0.669 | 0.901 | 0.69 | 0.658 | 0.796
HCC-366 | 0.135 | 0.12 | 0.194 | 0.111 | 0.129 | 0.67 | 0.675 | 0.708 | 0.717 | 0.183 | 0.179 | 0.195 | 0.172 | 0.182 | 1.11 | 0.981 | 0.964 | 0.957
HCC-827 | 0.391 | 0.47 | 0.383 | 0.449 | 0.43 | 0.29 | 0.234 | 0.313 | 0.264 | 0.287 | 0.315 | 0.241 | 0.249 | 0.267 | 1.06 | 1.04 | 0.914 | 0.939
